# From patent US8466130B2, “Mitochondria targeted cationic anti-oxidant compounds for prevention, therapy or treatment of hyper-proliferative disease, neoplasias and cancers” (Colby Pharmaceutical Company, priority 2009, dated 2013)
# What was measured:
# [1] = tested on: LNCaP cells; test: Hoechst dye-DNA fluorescence growth assay, LNCaP cells; format: cell-based, human; settings: varying concentrations (FIG. 8)
# Procedure: (§1) For DNA assay, each culture plate was thawed and equilibrated to room temperature under protection from light. Hoechst dye was then added to each well in 200 μL of high salt TNE buffer (10 mM Tris, 1 mM EDTA, 2 M NaCl [pH 7.4]) at a final concentration of 6.7 μg/mL. After further incubation at room temperature for 2 hours under protection from light, culture plates were scanned on the CytoFluor 2350™ scanner using the 360/460 nm filter excitation and emission set. The DNA fluorescence intensity was used as a measure of cell growth.
# (§2) The effects of varying concentrations of Mito-T drug on the growth of LNCaP and PC-3 cells over a period of 4 days was assayed using the Hoechst dye-DNA fluorescence assay described above. In these and all subsequent cell culture studies described below, each data point and its associated error bar are respectively, an average value and the standard deviation of data obtained from six wells of a 96-well plate run in duplicate in three separate sets of experiments.
# [2] = tested on: PC-3 cells; test: Hoechst dye-DNA fluorescence growth assay, PC-3 cells; format: cell-based, human; settings: varying concentrations (FIG. 8)
# Procedure: as §1, §2
smiles,measurement,setting,value
"CC1(C)CC(OCCCCCCCCCC[P+](c2ccccc2)(c2ccccc2)c2ccccc2)CC(C)(C)N1[O] [MitoT-10, [4-(10-triphenylphosphonium)decyloxy-2,2,6,6-tetramethylpiperidinyloxy, freeradical]bromide]",growth and proliferation,[1],inhibitory effect
same,growth and proliferation,[2],inhibitory effect
